Data set [1] is described as follows: Viability by FSC/SSC gate (flow cytometry) in TMD8 BTK-GFP/mCh cells. Conditions: human, TMD8 BTK-GFP/mCh cells, TMD8 BTK-GFP/mCh, 24 h. The data set is classed as cell-based, human. On the procedure: For flow cytometry measurements, 25,000 exponentially growing TMD8 BTK-GFP/mCh cells were plated in 100 μL of each well of a 96-well plate and grown for 24 h. Cells were then dosed with corresponding compounds and doses from 10 mM DMSO stock for 24 h, after which GFP and mCherry fluorescence was read with a Beckmann Coulter Cytoflex. For competition experiment, both compounds were added at the same time and dosed for 24 h. Cells were gated based on Forward & Side Scatter and selection for Single cells using SSC-A vs. SSC-H. Further, the population of viable cells was defined by the forward & side-scatter characteristics of DMSO-treated cells. […] Effects on viability were measured by the reduction of the percentage of cells included in this viable-population gate with increasing doses of compound tested. Degradation of BTK was calculated based on subtracting background (BG) fluorescence of parental TMD8 signal via (GFP-BG)/(mCherry-BG) of viable cells. Median ratios of three technical (different wells) replicates were used to calculate daily averages. Each compound dose–response was generated via three biological replicates (different days of experiment). Degradation curve parameters (DC50 & Abs. DC50 & max. Deg) were extracted using GraphPad Prism’s 4-parameter logistic curve fitting.
The viability window was determined by measuring the GI50 of viability based on the percentage of cells included in the viable gate and comparing it to the DC50 of degradation. The fold-change difference describing this window is [GI50 Viability / DC50 Degradation], where values above 1 indicate a positive (lower DC50 degradation than AC50 viability) window.
Background: Flow cytometry measures light scatter and fluorescence of single cells or particles in a stream.

The target of a further data set is BTK (Homo sapiens, UniProt Q06187). The data set can be described thus: BTK-GFP degradation by flow cytometry in TMD8 BTK-GFP/mCh cells. It counts as cell-based. Set-up: performed with full-length BTK and endogenous DCAF1; expressed in transfected cells; host or cells: TMD8 cells, lentiviral, blasticidin-selected (TMD8 BTK-GFP/mCh). The settings on record: for DC50 / max. BTK degradation (%): 24 h. Here is the method:
The bicistronic pLenti6 BTK-GFP-chysel-mCHERRY expression vector was cloned as described[92] using Gateway cloning with a pENTR-BTK plasmid lacking a STOP codon. TMD8 cells were then infected with lentiviral particles from this vector as described above and stably transfected cells were selected with blasticidin at a concentration of 10 μg/mL referred to as TMD8 BTK-GFP/mCh cells.
For flow cytometry measurements, 25,000 exponentially growing TMD8 BTK-GFP/mCh cells were plated in 100 μL of each well of a 96-well plate and grown for 24 h. Cells were then dosed with corresponding compounds and doses from 10 mM DMSO stock for 24 h, after which GFP and mCherry fluorescence was read with a Beckmann Coulter Cytoflex. For competition experiment, both compounds were added at the same time and dosed for 24 h. Cells were gated based on Forward & Side Scatter and selection for Single cells using SSC-A vs. SSC-H. Further, the population of viable cells was defined by the forward & side-scatter characteristics of DMSO-treated cells. To confirm cells outside of this population as non-viable, cells were plated and treated for 24 h, washed with PBS and stained for 30 min with two markers of early (Annexin-V) and late (LIVE/DEAD) apoptosis. Effects on viability were measured by the reduction of the percentage of cells included in this viable-population gate with increasing doses of compound tested. Degradation of BTK was calculated based on subtracting background (BG) fluorescence of parental TMD8 signal via (GFP-BG)/(mCherry-BG) of viable cells. Median ratios of three technical (different wells) replicates were used to calculate daily averages. Each compound dose–response was generated via three biological replicates (different days of experiment). Degradation curve parameters (DC50 & Abs. DC50 & max. Deg) were extracted using GraphPad Prism’s 4-parameter logistic curve fitting.

Another data set deals with T1, DCAF1(WDR) (Homo sapiens, UniProt Q9Y4B6, E1398S).
T1 construct: His6 (C); made in house; host or cells: Sf9 insect cells (baculovirus), co-expressed with BirA
As to the kind of experiment: DCAF1 TR-FRET competition assay, standard binary format. It counts as binding. Here is the method:
Competition assay conditions consist of 20 µL total volume in white 384-well plates (Greiner), in 30 mM phosphate buffer pH 7.4 containing 140 mM NaCl, 0.01% Tween20, 1 mM TCEP and 1% final DMSO. Tested compounds at 14 different concentrations were pre-incubated at 22 °C for 30 min with a large excess of 10 µM human BTK (G389-S659) or 10 µM human BRD9-BD(130-250) in the cooperative assay or with buffer in standard binary assay. […] Samples were then incubated at 22 °C for 30 min before reading using a Tecan infinite M-1000 or PheraStar FSX (excitation 340 nm, emission 490 and 520 nm). DCAF1 protein was omitted in the negative control. IC50 fitting was carried out using an in-house developed software (Novartis Helios software application, unpublished, a publicly available alternative would be e.g., Graphpad Prism) using the methods described by Fomenko et al.[93] (regression algorithms for nonlinear dose-response curve fitting). Following normalization of activity values for the wells to % inhibition (% inhibition = [(high control-sample)/(high control-low control)] × 100). Data analysis could also be carried out using GraphPad Prism without prior normalization. The reported IC50 values are the average of at least two independent experiments.
A general note: Time-resolved FRET reads energy transfer from a long-lived donor to a nearby acceptor.

Setting [2] is: Fig. 6b, read-out: DC50 BTK degradation (24h).
The mark [3] stands for this setting: TMD8 BTK-GFP/mCh, read-out: Absolute DC50 BTK-Degradation.
Setting [4] is: TMD8 BTK-GFP/mCh, read-out: DC50 BTK-Degradation.
Setting [5] is: ± SD (n), read-out: IC50 DCAF1 TR-FRET.

Like-named read-outs stand apart in the source and are kept apart here. A value given as a limit tells only on which side of the number the result lay.

BTK, sequence (Q06187 2-659 limits assumed): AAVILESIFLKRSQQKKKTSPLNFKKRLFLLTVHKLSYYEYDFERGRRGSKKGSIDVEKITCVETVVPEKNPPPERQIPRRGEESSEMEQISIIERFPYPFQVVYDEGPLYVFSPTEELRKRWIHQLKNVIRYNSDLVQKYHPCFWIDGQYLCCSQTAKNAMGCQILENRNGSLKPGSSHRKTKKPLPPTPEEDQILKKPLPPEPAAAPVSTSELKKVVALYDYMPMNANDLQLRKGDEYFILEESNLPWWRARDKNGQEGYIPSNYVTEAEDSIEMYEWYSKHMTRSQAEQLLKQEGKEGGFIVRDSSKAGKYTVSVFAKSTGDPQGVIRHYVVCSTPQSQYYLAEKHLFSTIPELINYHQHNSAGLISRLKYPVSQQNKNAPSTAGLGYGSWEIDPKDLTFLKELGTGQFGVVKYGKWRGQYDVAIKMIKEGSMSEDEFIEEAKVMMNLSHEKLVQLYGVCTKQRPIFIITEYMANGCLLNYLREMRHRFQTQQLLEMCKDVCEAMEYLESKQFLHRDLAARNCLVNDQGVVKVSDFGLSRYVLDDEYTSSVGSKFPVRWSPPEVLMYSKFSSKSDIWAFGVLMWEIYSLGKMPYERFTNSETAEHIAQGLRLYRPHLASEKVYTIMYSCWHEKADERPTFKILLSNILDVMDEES
T1 sequence (Q9Y4B6 1073-1399 E1398S): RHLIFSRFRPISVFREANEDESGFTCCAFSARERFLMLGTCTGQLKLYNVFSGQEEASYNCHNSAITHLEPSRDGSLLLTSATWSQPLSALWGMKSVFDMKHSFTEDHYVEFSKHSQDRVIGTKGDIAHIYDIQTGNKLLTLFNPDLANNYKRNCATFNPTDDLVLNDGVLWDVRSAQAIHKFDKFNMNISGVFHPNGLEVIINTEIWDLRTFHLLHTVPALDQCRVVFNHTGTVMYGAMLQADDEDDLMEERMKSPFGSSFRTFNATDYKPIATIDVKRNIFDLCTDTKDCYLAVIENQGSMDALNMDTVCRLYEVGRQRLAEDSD

What is called GI50 is the concentration giving 50% growth inhibition. The DC50 is the midpoint of the concentration-degradation curve. As a reminder, the IC50 is the concentration that gives 50% inhibition. As to `Cc1c(NC(=O)N2CC(O)(CC(C)(C)C)C2)cc(F)cc1-c1ncnc2[nH]c(-c3cnn(CC(=O)N4CCC5(CC4)CN(CCNC(=O)CCCC(=O)N4CCN(c6ccc7c(NCCN)nc(C8(c9ccc(Cl)cc9)CCCCC8)nc7c6)CC4)CCO5)c3)cc12` [DBt-10], the GI50 at 24 h in data set [1] (read-out: GI50) is over 25 µM. In addition, the “max. BTK degradation (24h, %)” value at BTK (Fig. 6b) is 94%. The DC50 on BTK (setting [2]) stood at 0.137 µM; on BTK (setting [3]), 0.149 µM; on BTK (setting [4]), 0.137 µM. For the same compound, on BTK (TMD8 BTK-GFP/mCh), the “max. BTK degradation (%)” value is 94%. For the same compound, the IC50 at DCAF1(WDR) (setting [5]) amounted to 0.134 ± 0.068 µM.

Turning to `CC(=O)N1CCN(c2ccc3c(NCCN)nc(C4(c5ccc(Cl)cc5)CCCCC4)nc3c2)CC1` [compound 13], the GI50 at 24 h in data set [1] (read-out: Abs GI50) amounted to 5.22 µM; in data set [1] (read-out: GI50) it was 5.04 µM. The “max. BTK degradation (%)” value at BTK (TMD8 BTK-GFP/mCh) is on record as 0%. Also, on BTK (setting [4]), the DC50 was over 25 µM.

With `COc1cc(-c2cn(C)c(=O)c3cnccc23)c(OC)cc1CN1CCC(OCCCCCC(=O)N2CCN(c3ccc4c(NCCN)nc(C5(c6ccc(Cl)cc6)CCCCC5)nc4c3)CC2)CC1` [DBr-1], on DCAF1(WDR) (binary, compound alone, spread in brackets, read-out: TR-FRET Q. IC50), the IC50 turned out to be 0.038 µM.

On to `Cc1nc(Nc2ncc(C(=O)Nc3c(C)cccc3Cl)s2)cc(N2CCC(OC3CCN(CCCCCCCC(=O)N4CCN(c5ccc6c(NCCN)nc(C7(c8ccc(Cl)cc8)CCCCC7)nc6c5)CC4)CC3)CC2)n1` [DDa-1], for which the GI50 at 24 h in data set [1] (read-out: Abs GI50) and in data set [1] (read-out: GI50 viability) was 1.2 µM each time. The DC50 at BTK (setting [3]) came out at 0.146 µM; on BTK (setting [4]), 0.0913 µM; on BTK (TMD8 BTK-GFP/mCh, read-out: DC50 BTK-GFP degradation), 0.09 µM.

Regarding `Cc1c(NC(=O)c2ccc(C(C)(C)O)cc2F)cc(F)cc1-c1ncnc2[nH]c(-c3ccc(CNCCOCCOCCOCCOCCOCCOCCOCCOCCOCCOCCOCCOCCC(=O)N4CCN(c5ccc6c(NCCN)nc(C7(c8ccc(Cl)cc8)CCCCC7)nc6c5)CC4)cc3)cc12` [DBt-5], the GI50 at 24 h came out at 4.12 µM in data set [1] (read-out: Abs GI50) and 4.24 µM in data set [1] (read-out: GI50). Also, on BTK (Fig. 6b), the “max. BTK degradation (24h, %)” value is 100%. The DC50 at BTK (setting [2]), at BTK (setting [3]) and at BTK (setting [4]) was 0.05 µM in each case. For the same compound, at BTK (TMD8 BTK-GFP/mCh), the “max. BTK degradation (%)” value came to 100%. The IC50 on DCAF1(WDR) (setting [5]) amounted to 0.023 ± 0.005 µM.

The record behind these values is publication PMC10766610, “DCAF1-based PROTACs with activity against clinically validated targets overcoming intrinsic- and acquired-degrader resistance” (Nature Communications, 2024).
